Values of other authors, collected in patent US9125860B2, “Phosphate free oral care compositions based on magnolia antibacterial agent” (Colgate-Palmolive Company, priority 2010, dated 2015).

Test system: S. mutans, F. nucleatum, V. parvula, A. naslundii, P. gingivitis
Conditions: representative oral bacteria; values not given
In the case of `CCCCc1ccc(O)c(-c2cc(CCCC)ccc2O)c1` [butylmagnolol], the “bactericidal properties in MIC test, in words” value (from here on “bactericidal properties”) is listed as “demonstrated bactericidal properties”.
For `C=CCc1ccc(O)c(-c2ccc(O)c(CC=C)c2)c1` [honokiol], the “bactericidal properties” value is listed as “demonstrated bactericidal properties”.
For `CC(C)c1ccc(O)c(-c2cc(C(C)C)ccc2O)c1` [isopropylmagnolol], the “bactericidal properties” value is listed as “demonstrated bactericidal properties”.
For `C=CCc1ccc(O)c(-c2cc(CC=C)ccc2O)c1` [magnolol], the “bactericidal properties” value is listed as “demonstrated bactericidal properties”.
For `CCCc1ccc(O)c(-c2ccc(O)c(CCC)c2)c1` [tetrahydrohonokiol], the “bactericidal properties” value is listed as “demonstrated bactericidal properties”.
For `CCCc1ccc(O)c(-c2cc(CCC)ccc2O)c1` [tetrahydromagnolol], the “bactericidal properties” value is listed as “demonstrated bactericidal properties”.
For butylhonokiol, the “bactericidal properties” value is listed as “demonstrated bactericidal properties”.
In the case of isopropylhonokiol, the “bactericidal properties” value is given as “demonstrated bactericidal properties”.
In the case of propylhonokiol, the “bactericidal properties” value is given as “demonstrated bactericidal properties”.
In the case of propylmagnolol, the “bactericidal properties” value is listed as “demonstrated bactericidal properties”.
